Test results as given in patent US11236055B2 (Venenum Biodesign, LLC, priority 2016, dated 2022).

How the values were obtained:
human TGR5 receptor = biological target: T1, human TGR5 receptor (Homo sapiens, UniProt Q8TDU6); assay: Human TGR5 cAMP production assay; assay type: cell-based; conditions: human TGR5, luminescent cAMP assay; coded A-D; read-out: Human TGR5 Lum. cAMP Activity (EC50)
T1 construct: host or cells: CHO-K1 (hTGR5-CHO cells)
T1 sequence (Q8TDU6 1-330): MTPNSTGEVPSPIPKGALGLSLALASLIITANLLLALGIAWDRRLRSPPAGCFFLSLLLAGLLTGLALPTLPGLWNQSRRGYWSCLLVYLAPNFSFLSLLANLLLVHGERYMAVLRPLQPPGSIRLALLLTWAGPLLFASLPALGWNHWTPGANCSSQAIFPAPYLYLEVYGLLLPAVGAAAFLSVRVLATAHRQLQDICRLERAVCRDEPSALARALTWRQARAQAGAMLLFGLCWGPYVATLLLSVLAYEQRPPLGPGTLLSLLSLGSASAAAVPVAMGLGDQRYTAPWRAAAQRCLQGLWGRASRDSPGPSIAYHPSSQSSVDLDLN
Summary of the method: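 Intracellular cAMP read by luminescent enzyme-complementation (XS+) after overnight development, following 1 h room-temperature compound treatment of hTGR5-CHO-K1 cells in IBMX plus anti-cAMP antibody. Compounds tested as half-log dilution series; EC50 derived.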

mouse TGR5 receptor = biological target: T2, mouse TGR5 receptor (Mus musculus, UniProt Q80SS6); assay: Mouse TGR5 cAMP production assay (HTRF, Cisbio cAMP HiRange); assay type: cell-based; conditions: HEK293-EBNA cells overexpressing mouse TGR5, HTRF cAMP HiRange; coded A-D
T2 construct: expressed in transfected cells; host or cells: HEK293-EBNA (293 c18, ATCC CRL10852), Hygromycin B selection
T2 sequence (Q80SS6 1-329): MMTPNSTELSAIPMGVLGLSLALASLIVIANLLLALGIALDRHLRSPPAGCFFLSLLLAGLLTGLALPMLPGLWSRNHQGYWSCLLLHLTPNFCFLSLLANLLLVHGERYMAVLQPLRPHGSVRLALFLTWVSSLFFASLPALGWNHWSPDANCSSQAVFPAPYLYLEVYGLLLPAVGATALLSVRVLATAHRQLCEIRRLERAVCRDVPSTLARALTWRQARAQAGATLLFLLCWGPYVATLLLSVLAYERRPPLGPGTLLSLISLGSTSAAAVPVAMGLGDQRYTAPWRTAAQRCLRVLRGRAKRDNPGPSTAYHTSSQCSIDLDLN
Summary of the method: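 cAMP read by HTRF competition after 1 h room-temperature compound exposure of mouse TGR5-overexpressing HEK293-EBNA cells. Cells were suspended in serum-free DMEM containing 500 μM IBMX; compounds ran as 12-point half-log dilutions in duplicate; EC50 derived.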

CCc1cnccc1-c1cccc(C2CN(C(=O)CCC(=O)O)CCN2S(=O)(=O)c2cccc(Cl)c2C)c1 (racemic) [Compound 46, (+/−) 4-(4-((3-Chloro-2-methylphenyl)sulfonyl)-3-(3-(3-ethylpyridin-4-yl)phenyl)piperazin-1-yl)-4-oxobutanoic acid]
EC50 (human TGR5 receptor): < 100 nM
EC50 (mouse TGR5 receptor): < 100 nM

CCc1cnccc1-c1cccc(C(C)(C)NS(=O)(=O)c2ccccc2C(F)(F)F)c1 [Compound 5, N-(2-(3-(3-ethylpyridin-4-yl)phenyl)propan-2-yl)-2-(trifluoromethyl)benzenesulfonamide]
EC50 (human TGR5 receptor): < 100 nM
EC50 (mouse TGR5 receptor): < 100 nM

Cc1cnccc1-c1cccc(C(C)(C)NS(=O)(=O)c2cccc(C(F)(F)F)c2)c1 [Compound 5AA, N-(2-(3-(3-methylpyridin-4-yl)phenyl)propan-2-yl)-3-(trifluoromethyl)benzenesulfonamide]
EC50 (human TGR5 receptor): < 100 nM

Cc1cnccc1-c1cccc(C(C)(C)N(CCCC(=O)O)S(=O)(=O)c2ccccc2C(F)(F)F)c1 [Compound 14, 4-(N-(2-(3-(3-methylpyridin-4-yl)phenyl)propan-2-yl)-2-(trifluoromethyl)phenylsulfonamido)butanoic acid]
EC50 (human TGR5 receptor): < 100 nM
EC50 (mouse TGR5 receptor): < 100 nM

CCc1cnccc1-c1cccc(C(C)(C)N(CCCC(=O)NCCS(=O)(=O)O)S(=O)(=O)c2ccccc2C(F)(F)F)c1 [Compound 20, 2-(4-(N-(2-(3-(3-ethylpyridin-4-yl)phenyl)propan-2-yl)-2-(trifluoromethyl)-phenylsulfonamido)butanamido)ethanesulfonic acid]
EC50 (human TGR5 receptor): < 100 nM
EC50 (mouse TGR5 receptor): < 100 nM

Cc1cnccc1-c1cccc(C(C)(C)N(CCCC(=O)NCCS(=O)(=O)O)S(=O)(=O)c2ccccc2C(F)(F)F)c1 [Compound 20AA, 2-(4-(N-(2-(3-(3-methylpyridin-4-yl)phenyl)propan-2-yl)-2-(trifluoromethyl)phenylsulfonamido)butanamido)ethanesulfonic acid]
EC50 (human TGR5 receptor): < 100 nM
EC50 (mouse TGR5 receptor): < 100 nM

Cc1cnccc1-c1cccc(C(C)(C)N(CCCC(=O)NCS(=O)(=O)O)S(=O)(=O)c2ccccc2C(F)(F)F)c1 [Compound 20AB]
EC50 (human TGR5 receptor): < 100 nM
EC50 (mouse TGR5 receptor): < 100 nM

CCc1cnccc1-c1cccc(C(C)(C)N(CCCC(=O)NCCS(=O)(=O)O)S(=O)(=O)c2cccc(Cl)c2C)c1 [Compound 20AC, 2-(4-(3-chloro-N-(2-(3-(3-ethylpyridin-4-yl)phenyl)propan-2-yl)-2-methylphenylsulfonamido)butanamido)ethanesulfonic acid]
EC50 (human TGR5 receptor): < 100 nM
EC50 (mouse TGR5 receptor): < 100 nM

Cc1cnccc1-c1cccc(C(C)(C)N(CCCC(=O)NCCCS(=O)(=O)O)S(=O)(=O)c2cccc(Cl)c2C)c1 [Compound 20AD, 3-(4-(3-chloro-2-methyl-N-(2-(3-(3-methylpyridin-4-yl)phenyl)propan-2-yl)phenylsulfonamido)butanamido)propane-1-sulfonic acid]
EC50 (human TGR5 receptor): < 100 nM
EC50 (mouse TGR5 receptor): < 100 nM

Cc1cnccc1-c1cccc(C(C)(C)N(CCCC(=O)NC[C@@H](O)[C@H](O)[C@@H](O)[C@@H](O)CO)S(=O)(=O)c2cccc(Cl)c2C)c1 [Compound 20AF, 4-(3-chloro-2-methyl-N-(2-(3-(3-methylpyridin-4-yl)phenyl)propan-2-yl)phenylsulfonamido)-N-((2R,3S,4S,5S)-2,3,4,5,6-pentahydroxyhexyl)butanamide]
EC50 (human TGR5 receptor): < 100 nM
EC50 (mouse TGR5 receptor): < 100 nM

Cc1cnccc1-c1cccc([C@H](C)N(CCCCC(=O)NCCS(=O)(=O)O)S(=O)(=O)c2cccc(Cl)c2C)c1 [Compound 20AH, (S)-2-(5-(3-chloro-2-methyl-N-(1-(3-(3-methylpyridin-4-yl)phenyl)ethyl)phenylsulfonamido)pentanamido)ethanesulfonic acid]
EC50 (human TGR5 receptor): < 100 nM
EC50 (mouse TGR5 receptor): < 100 nM

CCc1cnccc1-c1cccc([C@H](C)N(CCCC(=O)NCCCS(=O)(=O)O)S(=O)(=O)c2cccc(Cl)c2C)c1 [Compound 20AM, (S)-3-(4-(3-chloro-N-(1-(3-(3-ethylpyridin-4-yl)phenyl)ethyl)-2-methylphenylsulfonamido)butanamido)propane-1-sulfonic acid]
EC50 (human TGR5 receptor): < 100 nM
EC50 (mouse TGR5 receptor): < 100 nM

CCc1cnccc1-c1cccc([C@H](C)N(CCCC(=O)NC[C@@H](O)[C@H](O)[C@@H](O)[C@@H](O)CO)S(=O)(=O)c2cccc(Cl)c2C)c1 [Compound 20AN, 4-(3-chloro-N-((S)-1-(3-(3-ethylpyridin-4-yl)phenyl)ethyl)-2-methylphenylsulfonamido)-N-((2R,3S,4S,5S)-2,3,4,5,6-pentahydroxyhexyl)butanamide]
EC50 (human TGR5 receptor): < 100 nM
EC50 (mouse TGR5 receptor): < 100 nM

CCc1cnccc1-c1cccc([C@H](C)N(CCCC(=O)NCCS(=O)(=O)O)S(=O)(=O)c2ccccc2C)c1 [Compound 20AR, (S)-2-(4-(N-(1-(3-(3-ethylpyridin-4-yl)phenyl)ethyl)-2-methylphenyl-sulfonamido)butanamido)ethane sulfonic acid]
EC50 (human TGR5 receptor): < 100 nM
EC50 (mouse TGR5 receptor): < 100 nM

Cc1cnccc1-c1cccc(C(C)(C)N(CCCC(=O)NCCS(=O)(=O)NCC(=O)O)S(=O)(=O)c2cccc(Cl)c2C)c1 [Compound 20AW, (4-(3-chloro-2-methyl-N-(2-(3-(3-methylpyridin-4-yl)phenyl)propan-2-yl)phenylsulfonamido)-N-butanamidoethylsulfonamido)acetic acid]
EC50 (human TGR5 receptor): < 100 nM
EC50 (mouse TGR5 receptor): < 100 nM

CCc1cnccc1-c1cccc([C@H](C)N(CCCC(=O)NCCS(=O)(=O)O)S(=O)(=O)c2ccccc2C(F)(F)F)c1 [Compound 20BF, (S)-2-(4-(N-(1-(3-(3-ethylpyridin-4-yl)phenyl)ethyl)-2-(trifluoromethyl)phenylsulfonamido)butanamido)ethanesulfonic acid]
EC50 (human TGR5 receptor): < 100 nM
EC50 (mouse TGR5 receptor): < 100 nM

CCc1cnccc1-c1cccc([C@H](C)N(CCCC(=O)NCCS(=O)(=O)NCC(=O)O)S(=O)(=O)c2ccccc2C(F)(F)F)c1 [Compound 20BG]
EC50 (human TGR5 receptor): < 100 nM
EC50 (mouse TGR5 receptor): < 100 nM

Cc1cnccc1-c1cccc([C@H](C)N(CCCC(=O)NCCS(=O)(=O)NCCCC(=O)O)S(=O)(=O)c2ccccc2C(F)(F)F)c1 [Compound 20BK]
EC50 (human TGR5 receptor): < 100 nM
EC50 (mouse TGR5 receptor): < 100 nM

Cc1cnccc1-c1cccc([C@H](C)N(CCCCC(=O)NCCS(=O)(=O)NCC(=O)O)S(=O)(=O)c2ccccc2C(F)(F)F)c1 [Compound 20BL, (S) 2-(4-(N-(1-(3-(3-methylpyridin-4-yl)phenyl)ethyl)-2-(trifluoromethyl)phenylsulfonamidopentanamido)ethylsulfonamido)acetic acid]
EC50 (human TGR5 receptor): < 100 nM
EC50 (mouse TGR5 receptor): < 100 nM

Cc1cnccc1-c1cccc([C@H](C)N(CCCCC(=O)NCCS(=O)(=O)NCCC(=O)O)S(=O)(=O)c2ccccc2C(F)(F)F)c1 [Compound 20BM]
EC50 (human TGR5 receptor): < 100 nM
EC50 (mouse TGR5 receptor): < 100 nM

CCc1cnccc1-c1cccc([C@H](C)N(CCCC(=O)NCCS(=O)(=O)NCC(=O)O)S(=O)(=O)c2ccccc2C)c1 [Compound 20BU, (S)-2-(4-(2-methyl-N-(1-(3-(3-ethylpyridin-4-yl)phenyl)ethyl)phenylsulfonamido)butanamidoethylsulfonamido)acetate]
EC50 (human TGR5 receptor): < 100 nM
EC50 (mouse TGR5 receptor): < 100 nM

Cc1cnccc1-c1cccc(C(C)(C)N(CCCC(=O)NCC(=O)O)S(=O)(=O)c2cccc(Cl)c2C)c1 [Compound 21AB, 2-(4-(3-chloro-2-methyl-N-(2-(3-(3-methylpyridin-4-yl)phenyl)propan-2-yl)phenylsulfonamido)butanamido)acetic acid]
EC50 (human TGR5 receptor): < 100 nM
EC50 (mouse TGR5 receptor): < 100 nM

Cc1cnccc1-c1cccc([C@H](C)N(CCCC(=O)NCCS(=O)(=O)NCCC(=O)O)S(=O)(=O)c2cccc(Cl)c2C)c1 [Compound 21AL]
EC50 (human TGR5 receptor): < 100 nM
EC50 (mouse TGR5 receptor): < 100 nM

Cc1cnccc1-c1cccc([C@H](C)N(CCCC(=O)NCCS(=O)(=O)NCC(=O)O)S(=O)(=O)c2cccc(Cl)c2C)c1 [Compound 21AN, (S) 2-(3-(4-(3-chloro-2-methyl-N-(1-(3-(3-methylpyridin-4-yl)phenyl)ethyl)phenylsulfonamido)butanamido)ethylsulfonamido)acetic acid]
EC50 (human TGR5 receptor): < 100 nM
EC50 (mouse TGR5 receptor): < 100 nM

CCc1cnccc1-c1cccc([C@H](C)N(CCCC(=O)NCCS(=O)(=O)O)S(=O)(=O)c2cccc(Cl)c2C)c1 [Compound 21AQ, (S)-2-(4-(3-chloro-N-(1-(3-(3-ethylpyridin-4-yl)phenyl)ethyl)-2-methylphenylsulfonamido)butanamido)ethanesulfonic acid]
EC50 (human TGR5 receptor): < 100 nM
EC50 (mouse TGR5 receptor): < 100 nM
